Measured values: the NIST ThermoML archive (doi:10.1016/j.tca.2012.04.001)

Tests used:
[1] = 101.33 kPa, Liquid, Vibrating tube method
[2] = xn = mol fraction of the nth substance listed; conditions: 101 kPa, Liquid, Vibrating tube method

CCCCCl [1-chlorobutane]
[1]
Conditions | mass density [kg/m3]
288.15 K | 891.747
303.15 K | 875.099
313.15 K | 863.833

CCC(C)=O [butanone] + CCCCCCC
mass density [kg/m3], [2]
Conditions | 288.15 K | 303.15 K | 313.15 K
x2 = 0.0488 | 799.693 | 784.166 | 773.658
x2 = 0.0875 | 791.829 | 776.433 | 766.011
x2 = 0.1976 | 771.92 | 756.87 | 746.674
x2 = 0.2409 | 764.837 | 749.92 | 739.808
x2 = 0.2995 | 755.954 | 741.212 | 731.216
x2 = 0.3726 | 745.725 | 731.183 | 721.184
x2 = 0.444 | 736.645 | 722.313 | 712.588
x2 = 0.4708 | 733.346 | 719.166 | 709.492
x2 = 0.5132 | 728.532 | 714.398 | 704.806
x2 = 0.5941 | 719.999 | 706.083 | 696.646
x2 = 0.7024 | 709.67 | 696.076 | 686.851
x2 = 0.7471 | 705.937 | 692.464 | 683.324
x2 = 0.8016 | 701.621 | 688.317 | 679.294
x2 = 0.8341 | 699.194 | 686.007 | 677.044
x2 = 0.896 | 694.863 | 681.831 | 672.997
x2 = 0.9545 | 691.133 | 678.282 | 669.575

CCC(C)=O [butanone]
[1]
Conditions | mass density [kg/m3]
288.15 K | 810.328
303.15 K | 794.629
313.15 K | 784.008

CCCCCl [1-chlorobutane] + CCCCCCC
mass density [kg/m3], [2]
Conditions | 288.15 K | 303.15 K | 313.15 K
x1 = 0.0407 | 694.279 | 681.416 | 672.687
x1 = 0.0779 | 699.652 | 686.682 | 677.87
x1 = 0.1497 | 710.416 | 697.174 | 688.219
x1 = 0.2169 | 720.981 | 707.546 | 698.49
x1 = 0.2496 | 726.25 | 712.73 | 703.568
x1 = 0.2565 | 727.4 | 713.798 | 704.618
x1 = 0.2999 | 734.714 | 720.999 | 711.752
x1 = 0.363 | 745.784 | 731.835 | 722.416
x1 = 0.4023 | 752.916 | 738.839 | 729.286
x1 = 0.5009 | 771.635 | 757.206 | 747.426
x1 = 0.5052 | 772.539 | 758.088 | 748.294
x1 = 0.5987 | 791.61 | 776.768 | 766.715
x1 = 0.7138 | 817.052 | 801.757 | 791.398
x1 = 0.7493 | 825.378 | 809.928 | 799.44
x1 = 0.8009 | 837.92 | 822.176 | 811.608
x1 = 0.8875 | 860.284 | 844.077 | 833.14
x1 = 0.9476 | 876.694 | 860.27 | 849.181

CCCCCCC [heptane]
[1]
Conditions | mass density [kg/m3]
288.15 K | 688.588
303.15 K | 675.838
313.15 K | 665.838

CCCC(C)=O [pentan-2-one]
[1]
Conditions | mass density [kg/m3]
288.15 K | 811.491
303.15 K | 796.955
313.15 K | 787.16

CCCCCl [1-chlorobutane] + CCC(C)=O
mass density [kg/m3], [2]
Conditions | 288.15 K | 303.15 K | 313.15 K
x1 = 0.0603 | 815.629 | 799.819 | 789.16
x1 = 0.102 | 819.225 | 803.373 | 792.657
x1 = 0.1968 | 827.479 | 811.507 | 800.7
x1 = 0.2964 | 835.868 | 819.774 | 808.881
x1 = 0.4017 | 844.704 | 828.487 | 817.514
x1 = 0.4502 | 848.687 | 832.432 | 821.402
x1 = 0.5138 | 853.847 | 837.516 | 826.466
x1 = 0.5467 | 856.509 | 840.156 | 829.081
x1 = 0.6451 | 864.357 | 847.919 | 836.788
x1 = 0.6988 | 868.609 | 852.133 | 840.975
x1 = 0.7994 | 876.429 | 859.878 | 848.676
x1 = 0.8296 | 878.808 | 862.217 | 850.983
x1 = 0.9037 | 884.435 | 867.832 | 856.591
x1 = 0.9336 | 886.734 | 870.09 | 858.856

CCCC(C)=O [pentan-2-one] + CCCCCCC
mass density [kg/m3], [2]
Conditions | 288.15 K | 303.15 K | 313.15 K
x2 = 0.0562 | 801.549 | 787.145 | 777.44
x2 = 0.1047 | 793.314 | 778.964 | 769.309
x2 = 0.1946 | 778.848 | 764.618 | 755.031
x2 = 0.2463 | 770.971 | 756.828 | 747.271
x2 = 0.3006 | 763.126 | 748.98 | 739.521
x2 = 0.312 | 761.486 | 747.38 | 737.93
x2 = 0.3664 | 754.046 | 740.019 | 730.578
x2 = 0.4233 | 746.601 | 732.618 | 723.231
x2 = 0.4921 | 738.067 | 724.274 | 714.996
x2 = 0.5566 | 730.511 | 716.874 | 707.632
x2 = 0.6001 | 725.625 | 712.061 | 702.877
x2 = 0.7003 | 715.045 | 701.616 | 692.572
x2 = 0.7526 | 709.893 | 696.524 | 687.536
x2 = 0.8233 | 703.177 | 689.947 | 681.074
x2 = 0.8918 | 697.119 | 684.045 | 675.297
x2 = 0.95 | 692.408 | 679.462 | 670.763

CCCC(C)=O [pentan-2-one] + CCCCCl
mass density [kg/m3], [2]
Conditions | 288.15 K | 303.15 K | 313.15 K
x2 = 0.0725 | 816.977 | 802.287 | 792.387
x2 = 0.1054 | 819.501 | 804.742 | 794.796
x2 = 0.1321 | 821.521 | 806.72 | 796.726
x2 = 0.2299 | 829.083 | 814.071 | 803.941
x2 = 0.2994 | 834.489 | 819.331 | 809.089
x2 = 0.3515 | 838.598 | 823.323 | 813
x2 = 0.4369 | 845.4 | 829.942 | 819.494
x2 = 0.493 | 849.874 | 834.295 | 823.772
x2 = 0.5816 | 857.018 | 841.242 | 830.585
x2 = 0.6518 | 862.707 | 846.788 | 836.036
x2 = 0.6948 | 866.208 | 850.202 | 839.378
x2 = 0.749 | 870.664 | 854.538 | 843.633
x2 = 0.8055 | 875.345 | 859.097 | 848.116
x2 = 0.8359 | 877.911 | 861.609 | 850.574
x2 = 0.8866 | 882.185 | 865.757 | 854.665
x2 = 0.9145 | 884.566 | 868 | 856.9
